Measurements reported in ChEMBL document CHEMBL2440076, “New triarylpyrazoles as broad-spectrum anticancer agents: design, synthesis, and biological evaluation” (Eur J Med Chem, 2013).

Experiments:
Assay type in all cases: functional
[1] = Growth inhibition of human NCI-ADR-RES cells assessed as cell growth at 3X10'-7 M after 48 hrs by sulforhodamine B assay; conditions: read-out: Activity
SK-OV-3 [2] = assay: Growth inhibition of human SKOV3 cells assessed as cell growth at 3X10'-7 M after 48 hrs by sulforhodamine B assay; conditions: SK-OV-3, 48 h, read-out: Activity
SNB-75 = assay: Growth inhibition of human SNB75 cells assessed as cell growth at 3X10'-7 M after 48 hrs by sulforhodamine B assay; conditions: SNB-75, 48 h, read-out: Activity
HT-29 [3] = assay: Growth inhibition of human HT-29 cells assessed as cell growth at 3X10'-7 M after 48 hrs by sulforhodamine B assay; conditions: HT-29, 48 h, read-out: Activity
RPMI-8226 [4] = assay: Growth inhibition of human RPMI8226 cells assessed as cell growth at 3X10'-7 M after 48 hrs by sulforhodamine B assay; conditions: RPMI-8226, 48 h, read-out: Activity
MCF7 [5] = assay: Growth inhibition of human MCF7 cells assessed as cell growth at 3X10'-8 M after 48 hrs by sulforhodamine B assay; conditions: MCF7, 48 h, read-out: Activity
UO-31 = assay: Growth inhibition of human UO31 cells assessed as cell growth at 3X10'-8 M after 48 hrs by sulforhodamine B assay; conditions: UO-31, 48 h, read-out: Activity
CAKI-1 = assay: Growth inhibition of human CAKI-1 cells assessed as cell growth at 3X10'-8 M after 48 hrs by sulforhodamine B assay; conditions: CAKI-1, 48 h, read-out: Activity
[6] = Growth inhibition of human NCI-ADR-RES cells assessed as cell growth at 3X10'-8 M after 48 hrs by sulforhodamine B assay; conditions: read-out: Activity
MDA-MB-468 [7] = assay: Growth inhibition of human MDA-MB-468 cells assessed as cell growth at 3X10'-5 M after 48 hrs by sulforhodamine B assay; conditions: MDA-MB-468, 48 h, read-out: Activity
MCF7 [8] = assay: Growth inhibition of human MCF7 cells assessed as cell growth at 3X10'-5 M after 48 hrs by sulforhodamine B assay; conditions: MCF7, 48 h, read-out: Activity
IGROV-1 = assay: Growth inhibition of human IGROV1 cells assessed as cell growth at 3X10'-8 M after 48 hrs by sulforhodamine B assay; conditions: IGROV-1, 48 h, read-out: Activity
SK-MEL-5 = assay: Growth inhibition of human SK-MEL-5 cells assessed as cell growth at 3X10'-8 M after 48 hrs by sulforhodamine B assay; conditions: SK-MEL-5, 48 h, read-out: Activity
SK-MEL-2 = assay: Growth inhibition of human SK-MEL-2 cells assessed as cell growth at 3X10'-8 M after 48 hrs by sulforhodamine B assay; conditions: SK-MEL-2, 48 h, read-out: Activity
MDA-MB-435 = assay: Growth inhibition of human MDA-MB-435 cells assessed as cell growth at 3X10'-8 M after 48 hrs by sulforhodamine B assay; conditions: MDA-MB-435, 48 h, read-out: Activity
RPMI-8226 [9] = assay: Growth inhibition of human RPMI8226 cells assessed as cell growth at 3X10'-8 M after 48 hrs by sulforhodamine B assay; conditions: RPMI-8226, 48 h, read-out: Activity
MOLT-4 = assay: Growth inhibition of human MOLT4 cells assessed as cell growth at 3X10'-8 M after 48 hrs by sulforhodamine B assay; conditions: MOLT-4, 48 h, read-out: Activity
HL-60(TB) = assay: Growth inhibition of human HL-60(TB) cells assessed as cell growth at 3X10'-8 M after 48 hrs by sulforhodamine B assay; conditions: HL-60, 48 h, read-out: Activity
BT-549 [10] = assay: Growth inhibition of human BT549 cells assessed as cell growth at 3X10'-9 M after 48 hrs by sulforhodamine B assay; conditions: BT-549, 48 h, read-out: Activity
RXF 393 = assay: Growth inhibition of human RXF393 cells assessed as cell growth at 3X10'-5 M after 48 hrs by sulforhodamine B assay; conditions: RXF 393, 48 h, read-out: Activity
SK-OV-3 [11] = assay: Growth inhibition of human SKOV3 cells assessed as cell growth at 3X10'-5 M after 48 hrs by sulforhodamine B assay; conditions: SK-OV-3, 48 h, read-out: Activity
MDA-MB-231 = assay: Growth inhibition of human MDA-MB-231 cells assessed as cell growth at 3X10'-9 M after 48 hrs by sulforhodamine B assay; conditions: MDA-MB-231, 48 h, read-out: Activity
PC-3 = assay: Growth inhibition of human PC3 cells assessed as cell growth at 3X10'-9 M after 48 hrs by sulforhodamine B assay; conditions: PC-3, 48 h, read-out: Activity
SN12C = assay: Growth inhibition of human SN12C cells assessed as cell growth at 3X10'-9 M after 48 hrs by sulforhodamine B assay; conditions: read-out: Activity
UACC-62 = assay: Growth inhibition of human UACC62 cells assessed as cell growth at 3X10'-5 M after 48 hrs by sulforhodamine B assay; conditions: UACC-62, 48 h, read-out: Activity
SW-620 = assay: Growth inhibition of human SW620 cells assessed as cell growth at 3X10'-5 M after 48 hrs by sulforhodamine B assay; conditions: SW-620, 48 h, read-out: Activity
MDA-MB-468 [12] = assay: Growth inhibition of human MDA-MB-468 cells assessed as cell growth at 3X10'-6 M after 48 hrs by sulforhodamine B assay; conditions: MDA-MB-468, 48 h, read-out: Activity
BT-549 [13] = assay: Growth inhibition of human BT549 cells assessed as cell growth at 3X10'-6 M after 48 hrs by sulforhodamine B assay; conditions: BT-549, 48 h, read-out: Activity
SK-MEL-28 = assay: Growth inhibition of human SK-MEL-28 cells assessed as cell growth at 3X10'-9 M after 48 hrs by sulforhodamine B assay; conditions: SK-MEL-28, 48 h, read-out: Activity
SF-539 = assay: Growth inhibition of human SF539 cells assessed as cell growth at 3X10'-9 M after 48 hrs by sulforhodamine B assay; conditions: SF-539, 48 h, read-out: Activity
786-0 = assay: Growth inhibition of human 786-0 cells assessed as cell growth at 3X10'-6 M after 48 hrs by sulforhodamine B assay; conditions: 786-0, 48 h, read-out: Activity
SK-OV-3 [14] = assay: Growth inhibition of human SKOV3 cells assessed as cell growth at 3X10'-6 M after 48 hrs by sulforhodamine B assay; conditions: SK-OV-3, 48 h, read-out: Activity
SF-295 = assay: Growth inhibition of human SF295 cells assessed as cell growth at 3X10'-6 M after 48 hrs by sulforhodamine B assay; conditions: SF-295, 48 h, read-out: Activity
HT-29 [15] = assay: Growth inhibition of human HT-29 cells assessed as cell growth at 3X10'-6 M after 48 hrs by sulforhodamine B assay; conditions: HT-29, 48 h, read-out: Activity
T47D = assay: Growth inhibition of human T47D cells assessed as cell growth at 3X10'-7 M after 48 hrs by sulforhodamine B assay; conditions: read-out: Activity
TK-10 = assay: Growth inhibition of human TK10 cells assessed as cell growth at 3X10'-7 M after 48 hrs by sulforhodamine B assay; conditions: TK-10, 48 h, read-out: Activity

Row | SMILES | growth at 0.3 µM [1] [%] | growth at 0.3 µM (SK-OV-3 [2]) [%] | growth at 0.3 µM (SNB-75) [%] | growth at 0.3 µM (HT-29 [3]) [%] | growth at 0.3 µM (RPMI-8226 [4]) [%] | growth at 0.03 µM (MCF7 [5]) [%] | growth at 0.03 µM (UO-31) [%] | growth at 0.03 µM (CAKI-1) [%] | growth at 0.03 µM [6] [%] | growth at 30 µM (MDA-MB-468 [7]) [%] | growth at 30 µM (MCF7 [8]) [%] | growth at 0.03 µM (IGROV-1) [%] | growth at 0.03 µM (SK-MEL-5) [%] | growth at 0.03 µM (SK-MEL-2) [%] | growth at 0.03 µM (MDA-MB-435) [%] | growth at 0.03 µM (RPMI-8226 [9]) [%] | growth at 0.03 µM (MOLT-4) [%] | growth at 0.03 µM (HL-60(TB)) [%] | growth at 0.003 µM (BT-549 [10]) [%] | growth at 30 µM (RXF 393) [%] | also measured
1 | COc1cc(-c2nn(-c3cccc(NC(=O)Nc4ccc(Cl)c(C(F)(F)F)c4)c3)cc2-c2ccncc2)ccc1Cl | 98 | 103 | 88 | 102 | 87 | 92 | 89 | 94 | 108 | -38 | 2 | 102 | 91 | 115 | 92 | 97 | 106 | 103 | 103 | -49 | growth at 30 µM (SK-OV-3 [11]): -14%; growth at 0.003 µM (MDA-MB-231): 89%; growth at 0.003 µM (PC-3): 95%; growth at 0.003 µM (SN12C): 95%; growth at 30 µM (UACC-62): -73%; growth at 30 µM (SW-620): -1%; growth at 3 µM (MDA-MB-468 [12]): 6%; growth at 3 µM (BT-549 [13]): 40%; growth at 0.003 µM (SK-MEL-28): 99%; growth at 0.003 µM (SF-539): 97%; growth at 3 µM (786-0): 28%; growth at 3 µM (SK-OV-3 [14]): 21%; growth at 3 µM (SF-295): -11%; growth at 3 µM (HT-29 [15]): 10%; growth at 0.3 µM (T47D): 95%; growth at 0.3 µM (TK-10): 101%
2 | O=C(Nc1cccc(-n2cc(-c3ccncc3)c(-c3ccc(Cl)c(O)c3)n2)c1)Nc1ccc(Cl)c(Cl)c1 | 102 | 98 | 83 | 110 | 90 | 93 | 92 | 94 | 97 | -18 | 2 | 104 | 96 | 106 | 96 | 102 | 99 | 101 | 99 | -37 | growth at 0.003 µM (MDA-MB-231): 102%; growth at 0.003 µM (PC-3): 103%; growth at 0.003 µM (SN12C): 93%; growth at 30 µM (UACC-62): -53%; growth at 30 µM (SW-620): 1%; growth at 3 µM (MDA-MB-468 [12]): 2%; growth at 3 µM (BT-549 [13]): 28%; growth at 0.003 µM (SK-MEL-28): 102%; growth at 0.003 µM (SF-539): 92%; growth at 3 µM (786-0): 74%; growth at 3 µM (SK-OV-3 [14]): 13%; growth at 3 µM (HT-29 [15]): 60%; growth at 0.3 µM (T47D): 100%; growth at 0.3 µM (TK-10): 112%
3 | COc1cc(-c2nn(-c3cccc(NC(=O)c4ccc(Cl)c(C(F)(F)F)c4)c3)cc2-c2ccncc2)ccc1Cl | 91 | 103 | 77 | 93 | 94 | 93 | 80 | 93 | 94 | 9 | 13 | 89 | 97 | 100 | 97 | 100 | 97 | 113 | 96 | -11 | growth at 30 µM (SK-OV-3 [11]): 24%; growth at 0.003 µM (MDA-MB-231): 99%; growth at 0.003 µM (PC-3): 94%; growth at 0.003 µM (SN12C): 98%; growth at 30 µM (UACC-62): 20%; growth at 30 µM (SW-620): 24%; growth at 3 µM (MDA-MB-468 [12]): 52%; growth at 3 µM (BT-549 [13]): 62%; growth at 0.003 µM (SK-MEL-28): 99%; growth at 0.003 µM (SF-539): 100%; growth at 3 µM (786-0): 71%; growth at 3 µM (SK-OV-3 [14]): 71%; growth at 3 µM (SF-295): 27%; growth at 3 µM (HT-29 [15]): 51%; growth at 0.3 µM (T47D): 92%; growth at 0.3 µM (TK-10): 108%
